Counter-ions that a name gives are not always drawn. Like-named read-outs stand apart in the source and are kept apart here.
System: hPSC-SCs
[1] = HTS viability of hPSC-SCs in the presence of 30 mM glucose, Prestwick library, Table S4

Compound	z.score.t [1]	z.score.t
CN[C@H]1CC[C@@H](c2ccc(Cl)c(Cl)c2)c2ccccc21 [Sertraline]	−1.388	
CO[C@H]1C[C@H](O[C@H]2[C@H](C)[C@@H](O[C@@H]3O[C@H](C)C[C@H](N(C)C)[C@H]3O)[C@@H](C)C[C@@]3(CO3)C(=O)[C@H](C)[C@@H](O)[C@@H](C)[C@@H](C)OC(=O)[C@@H]2C)O[C@@H](C)[C@@H]1O [Oleandomycin phosphate]	−0.5417	
Cc1cccc(C)c1N=C1NCCCS1 [Xylazine]		1.75
(−)-MK 801 hydrogen maleate		1.657
Cc1c(OCC(F)(F)F)ccnc1C[S+]([O-])c1nc2ccccc2[nH]1 (centres unmarked) [Lansoprazole]	1.808	
O=C(NCC1CCCCN1)c1cc(OCC(F)(F)F)ccc1OCC(F)(F)F (centres unmarked) [Flecainide acetate]	0.4105	
Clc1ccccc1CN1CCc2sccc2C1 [Ticlopidine hydrochloride]	0.7034	
O=C1CCc2cc(OCCCCc3nnnn3C3CCCCC3)ccc2N1 [Cilostazol]	1.73	
C[C@@H]1CN([C@H]2CC[C@](C#N)(c3ccc(F)cc3)CC2)CC[C@]1(C(=O)O)c1ccccc1 [Levocabastine hydrochloride]	−0.6516	
C[C@]12CCC(=O)C=C1CC[C@@H]1[C@@H]2C(=O)C[C@]2(C)C(=O)CC[C@@H]12 [Adrenosterone]		1.101
NC(Cn1ccc(=O)c(O)c1)C(=O)O (centres unmarked) [Mimosine]	0.7491	
CC(C)(O/N=C(\C(=O)N[C@@H]1C(=O)N2C(C(=O)[O-])=C(C[n+]3ccccc3)CS[C@H]12)c1csc(N)n1)C(=O)O [Ceftazidime pentahydrate]	0.563	
CCCCC[C@H](O)/C=C/[C@@H]1[C@@H](C/C=C\CCCC(=O)O)[C@@H](O)C[C@H]1O [Dinoprost trometamol]	1.789	
CCC1=C(C)CN(C(=O)NCCc2ccc(S(=O)(=O)NC(=O)N[C@H]3CC[C@H](C)CC3)cc2)C1=O [Glimepiride]	1.252	
O=C(O)c1ccccc1C(=O)Nc1ccc(S(=O)(=O)Nc2nccs2)cc1 [Phthalylsulfathiazole]	−1.317	
N[C@@H]1CONC1=O [D-cycloserine]	0.9162	
NC(CO)C(=O)NNCc1ccc(O)c(O)c1O (centres unmarked) [Benserazide hydrochloride]	−0.2359	
Cc1ccc(/C(=C\CN2CCCC2)c2ccccn2)cc1 [Triprolidine hydrochloride]	0.2479	
CN[C@@H]1[C@H](O[C@H]2[C@H](O[C@H]3[C@H](O)[C@@H](O)[C@H](NC(=N)N)[C@@H](O)[C@@H]3NC(=N)N)O[C@@H](C)[C@]2(O)CO)O[C@@H](CO)[C@H](O)[C@H]1O [Dihydrostreptomycin sulfate]	−0.359	
CCCCc1cc2ccccc2c(OCCN(C)C)n1 [Dimethisoquin hydrochloride]	0.04918	

Compound	z.score.t [1]	z.score.t
CCOC(=O)Nc1ccc2c(c1)N(C(=O)CCN1CCOCC1)c1ccccc1S2 [Moricizine hydrochloride]	0.0827	
C1CCC(C(CC2CCCCN2)C2CCCCC2)CC1 (centres unmarked) [Perhexiline maleate]	−1.682	
C[C@@H]1CC[C@H]2[C@@H](C)C(=O)O[C@@H]3O[C@@]4(C)CC[C@@H]1[C@]32OO4 [Artemisinin]	−0.5919	
CCCCOC(=O)c1ccc(N)cc1 [Butamben]	0.8465	
Tropicamide	−0.1241	
NCCc1cc[nH]n1 [Betazole hydrochloride]	1.681	
CCN1CCCC(OC(=O)C(c2ccccc2)c2ccccc2)C1 (centres unmarked) [Piperidolate hydrochloride]		−1.025
Cc1ccc(Cl)c(Nc2ccccc2C(=O)O)c1Cl	−1.427	
C=CCOC(Cn1ccnc1)c1ccc(Cl)cc1Cl (centres unmarked) [Enilconazole]	−1.535	
COc1ccc2cc([C@H](C)C(=O)O)ccc2c1 [Naproxen]	1.745	
C#C[C@]1(O)CC[C@H]2[C@@H]3CCC4=CCCC[C@@H]4[C@H]3CC[C@@]21C [Lynestrenol]	−1.847	
COc1ccc(C[C@H]2NC[C@H](O)[C@H]2OC(C)=O)cc1 [Anisomycin]		−2.056
(S)-(−)-Atenolol	1.606	
CCOC(=O)c1ccc(OC(=O)CCCCCN=C(N)N)cc1.CS(=O)(=O)O [Gabexate mesilate]	0.5136	
c1ccc(CN(CC2=NCCN2)c2ccccc2)cc1 [Antazoline hydrochloride]	−0.004573	
CC(C)NCC(O)COc1cccc2[nH]ccc12 (centres unmarked) [Pindolol]	0.2038	
Cc1cc2nc3c(=O)[nH]c(=O)nc-3n(C[C@H](O)[C@H](O)[C@H](O)CO)c2cc1C [Riboflavine]	1.211	
Nc1ccc(S(=O)(=O)Nc2ccnn2-c2ccccc2)cc1 [Sulfaphenazole]	0.4626	
CCCNC(C)C(=O)Nc1c(C)csc1C(=O)OC (centres unmarked) [Articaine hydrochloride]	0.8481	
CN(C/C=C/c1ccccc1)Cc1cccc2ccccc12 [Naftifine hydrochloride]	−1.168	

Compound	z.score.t [1]	z.score.t
O=C(O)CNC(=O)C(CS)Cc1ccccc1 (centres unmarked) [Thiorphan]	0.563	
Nc1ccc(S(N)(=O)=O)cc1 [Sulfanilamide]	−0.4325	
Cc1ncc(C[n+]2csc(CCO)c2C)c(N)n1 [Thiamine hydrochloride]	−0.865	
Cn1c(=O)c2c(ncn2CC(O)CO)n(C)c1=O (centres unmarked) [Diprophylline]	0.7415	
Avermectin B1		0.7158
CC(C)(C)c1ccc(C(O)CCCN2CCC(C(O)(c3ccccc3)c3ccccc3)CC2)cc1 (centres unmarked) [Terfenadine]	−0.8513	
CC(O)(P(=O)(O)O)P(=O)(O)O [Etidronic acid, disodium salt]	−0.8317	
CC(C)(C)NCC(O)c1ccc(O)c(CO)c1 (centres unmarked) [Salbutamol]	0.5041	
CC(=O)N(CC(C)C(=O)O)c1c(I)cc(I)c(N)c1I (centres unmarked) [Iocetamic acid]	0.9178	
CC[C@]12CCCN3CCc4c(n(c5ccccc45)[C@](O)(C(=O)OC)C1)[C@@H]32 [Epivincamine]		−0.2486
CC1(C)S[C@@H]2[C@H](NC(=O)[C@H](N)c3ccc(O)cc3)C(=O)N2[C@H]1C(=O)O [Amoxicillin]	1.457	
NS(=O)(=O)c1cc2c(cc1Cl)NCNS2(=O)=O [Hydrochlorothiazide]	0.1742	
CCCN(CCC)S(=O)(=O)c1ccc(C(=O)O)cc1 [Probenecid]	−0.3319	
CNC(C)CCC=C(C)C.CNC(C)CCC=C(C)C.O=C(O)[C@@H](O)[C@H](O)[C@H](O)[C@@H](O)C(=O)O [Isometheptene mucate]	1.27	
C[n+]1ccccc1/C=N/O [Pralidoxime chloride]		−0.411
CN(C)C(=O)C(CCN1CCC(O)(c2ccc(Cl)cc2)CC1)(c1ccccc1)c1ccccc1 [Loperamide hydrochloride]		−1.329
C=C[C@H]1C[N@@]2CC[C@H]1C[C@@H]2[C@@H](O)c1ccnc2ccccc12 [Cinchonine]	1.252	
C[C@H]1CC[C@]2(NC1)O[C@H]1C[C@H]3[C@@H]4CC[C@H]5C[C@@H](O)CC[C@]5(C)[C@H]4CC[C@]3(C)[C@H]1[C@@H]2C [Tomatidine]		−0.2904
CCCCc1ccc2[nH]c(NC(=O)OC)nc2c1 [Parbendazole]		−1.543
